How the values were obtained:
SK-MEL-5 [1] = experiment: Antiproliferative activity against human SK-MEL-5 cells assessed as cell growth inhibition measured after 48 hrs by SRB assay; assay type: functional, cell-based; conditions: SK-MEL-5, 48 h
[2] = target: Fibroblast growth factor receptor 1 (Homo sapiens) (UniProt P11362); experiment: Inhibition of FGFR1 (unknown origin) at 10 uM incubated for 40 mins in presence of Mg/ATP mix by [gamma p33]-ATP based scintillation counting method relative to control
[3] = target: T1, RAF proto-oncogene serine/threonine-protein kinase (Homo sapiens, UniProt P04049); experiment: Inhibition of RAF1 (unknown origin) at 10 uM incubated for 40 mins in presence of Mg/ATP mix by [gamma p33]-ATP based scintillation counting method relative to control
T1 sequence (P04049 whole entry): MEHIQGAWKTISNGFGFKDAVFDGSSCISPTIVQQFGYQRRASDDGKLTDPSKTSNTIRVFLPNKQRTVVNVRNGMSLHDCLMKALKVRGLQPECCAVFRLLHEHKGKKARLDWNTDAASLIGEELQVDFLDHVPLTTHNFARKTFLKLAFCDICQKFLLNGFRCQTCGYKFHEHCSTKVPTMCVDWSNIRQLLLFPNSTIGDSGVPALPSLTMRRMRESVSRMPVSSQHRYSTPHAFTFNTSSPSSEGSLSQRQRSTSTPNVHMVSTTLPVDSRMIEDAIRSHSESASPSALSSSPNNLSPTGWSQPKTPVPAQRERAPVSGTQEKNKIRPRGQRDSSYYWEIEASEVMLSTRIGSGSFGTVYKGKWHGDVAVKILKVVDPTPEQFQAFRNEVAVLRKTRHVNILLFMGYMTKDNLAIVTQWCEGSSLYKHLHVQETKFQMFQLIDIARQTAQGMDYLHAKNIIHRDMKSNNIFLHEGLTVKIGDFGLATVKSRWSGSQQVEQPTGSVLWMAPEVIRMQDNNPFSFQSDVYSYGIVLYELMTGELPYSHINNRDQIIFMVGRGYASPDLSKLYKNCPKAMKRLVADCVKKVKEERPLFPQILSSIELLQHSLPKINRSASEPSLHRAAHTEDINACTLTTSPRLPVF

DU-145 [4] = experiment: Antiproliferative activity against human DU-145 cells assessed as cell growth inhibition at 10 uM measured after 48 hrs by SRB assay relative to control; assay type: functional
[5] = target: T2, Vascular endothelial growth factor receptor 2 (Homo sapiens, UniProt P35968); experiment: Inhibition of KDR (unknown origin) at 10 uM incubated for 40 mins in presence of Mg/ATP mix by [gamma p33]-ATP based scintillation counting method relative to control
T2 sequence (P35968 whole entry): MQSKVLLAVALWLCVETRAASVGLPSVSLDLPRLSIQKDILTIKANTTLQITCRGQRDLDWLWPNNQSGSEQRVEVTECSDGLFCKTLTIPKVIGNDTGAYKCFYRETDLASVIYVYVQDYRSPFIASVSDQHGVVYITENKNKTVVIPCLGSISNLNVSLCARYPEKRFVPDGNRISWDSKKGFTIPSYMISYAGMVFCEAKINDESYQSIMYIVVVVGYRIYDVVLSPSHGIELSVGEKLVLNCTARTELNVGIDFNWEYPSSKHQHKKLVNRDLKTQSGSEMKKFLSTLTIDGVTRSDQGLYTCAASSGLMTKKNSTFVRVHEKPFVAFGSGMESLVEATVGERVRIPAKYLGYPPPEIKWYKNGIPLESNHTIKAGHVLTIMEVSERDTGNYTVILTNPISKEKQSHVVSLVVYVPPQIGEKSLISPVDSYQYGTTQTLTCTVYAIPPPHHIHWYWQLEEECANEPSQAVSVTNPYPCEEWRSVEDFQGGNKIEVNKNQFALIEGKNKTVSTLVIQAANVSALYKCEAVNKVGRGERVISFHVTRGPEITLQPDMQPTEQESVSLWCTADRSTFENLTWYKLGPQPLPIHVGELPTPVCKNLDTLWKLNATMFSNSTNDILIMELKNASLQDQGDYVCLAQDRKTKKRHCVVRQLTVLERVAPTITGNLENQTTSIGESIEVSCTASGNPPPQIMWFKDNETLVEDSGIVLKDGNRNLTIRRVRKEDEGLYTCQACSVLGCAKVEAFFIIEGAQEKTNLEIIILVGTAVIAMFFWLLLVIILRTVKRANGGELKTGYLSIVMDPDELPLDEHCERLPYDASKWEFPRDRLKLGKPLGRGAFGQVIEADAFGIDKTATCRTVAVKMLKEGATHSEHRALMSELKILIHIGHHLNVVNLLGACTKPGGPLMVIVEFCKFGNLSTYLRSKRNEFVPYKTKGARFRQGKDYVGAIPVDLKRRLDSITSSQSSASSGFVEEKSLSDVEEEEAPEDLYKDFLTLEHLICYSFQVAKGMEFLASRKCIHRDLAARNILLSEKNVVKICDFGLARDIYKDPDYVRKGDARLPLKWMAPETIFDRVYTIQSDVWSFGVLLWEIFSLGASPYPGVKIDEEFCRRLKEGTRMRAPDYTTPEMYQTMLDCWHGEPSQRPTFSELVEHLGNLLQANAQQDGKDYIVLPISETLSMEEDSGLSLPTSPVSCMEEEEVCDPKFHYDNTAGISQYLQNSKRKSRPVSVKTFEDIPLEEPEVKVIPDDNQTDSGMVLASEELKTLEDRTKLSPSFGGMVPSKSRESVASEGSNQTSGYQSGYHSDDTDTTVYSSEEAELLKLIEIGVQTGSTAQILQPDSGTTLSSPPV

[6] = test system: Panel NCI-60 (60 carcinoma cell lines); experiment: Growth inhibition of human panel NCI-60 (60 carcinoma cells) assessed as growth percent at 10 uM measured after 48 hrs by SRB assay relative to control; assay type: functional; conditions: read-out: Activity
[7] = test system: Serine/threonine-protein kinase B-raf (Homo sapiens), P15056 [V600E]; experiment: Inhibition of BRAF V600E mutant (unknown origin) at 10 uM incubated for 40 mins in presence of Mg/ATP mix by [gamma p33]-ATP based scintillation counting method relative to control
Chain of Serine/threonine-protein kinase B-raf (Homo sapiens), P15056 [V600E] (P15056 whole entry V600E): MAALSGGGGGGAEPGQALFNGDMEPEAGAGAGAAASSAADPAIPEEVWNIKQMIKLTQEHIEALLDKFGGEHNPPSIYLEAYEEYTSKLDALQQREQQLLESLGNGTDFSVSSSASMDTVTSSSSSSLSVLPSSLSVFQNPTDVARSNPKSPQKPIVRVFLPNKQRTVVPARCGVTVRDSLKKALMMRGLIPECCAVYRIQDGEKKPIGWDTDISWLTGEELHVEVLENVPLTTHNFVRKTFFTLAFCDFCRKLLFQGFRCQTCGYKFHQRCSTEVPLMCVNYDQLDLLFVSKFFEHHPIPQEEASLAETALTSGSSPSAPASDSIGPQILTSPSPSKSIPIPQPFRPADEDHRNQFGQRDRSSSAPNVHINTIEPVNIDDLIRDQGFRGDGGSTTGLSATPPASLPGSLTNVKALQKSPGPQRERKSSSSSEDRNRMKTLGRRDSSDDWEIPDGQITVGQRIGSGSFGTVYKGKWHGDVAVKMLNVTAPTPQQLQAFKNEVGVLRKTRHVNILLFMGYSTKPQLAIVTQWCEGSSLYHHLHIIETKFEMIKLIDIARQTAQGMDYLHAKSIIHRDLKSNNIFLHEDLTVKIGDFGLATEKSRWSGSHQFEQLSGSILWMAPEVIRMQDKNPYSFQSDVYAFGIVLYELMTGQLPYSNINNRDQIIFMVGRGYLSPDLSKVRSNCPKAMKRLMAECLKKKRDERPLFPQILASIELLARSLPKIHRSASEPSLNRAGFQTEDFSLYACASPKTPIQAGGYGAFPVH

SK-MEL-5 [8] = experiment: Antiproliferative activity against human SK-MEL-5 cells assessed as cell growth inhibition at 10 uM measured after 48 hrs by SRB assay relative to control; assay type: functional
[9] = target: T3, Serine/threonine-protein kinase B-raf (Homo sapiens, UniProt P15056); experiment: Inhibition of wild type B-RAF (unknown origin) at 10 uM incubated for 40 mins in presence of Mg/ATP mix by [gamma p33]-ATP based scintillation counting method relative to control
T3 sequence (P15056 whole entry): as the sequence (P15056 whole entry V600E) above, with E600V counted along it

DU-145 [10] = experiment: Antiproliferative activity against human DU-145 cells assessed as cell growth inhibition measured after 48 hrs by SRB assay; assay type: functional, cell-based; conditions: DU-145, 48 h
SNB-75 [11] = experiment: Antiproliferative activity against human SNB-75 cells assessed as cell growth inhibition measured after 48 hrs by SRB assay; assay type: functional, cell-based; conditions: SNB-75, 48 h
NCI-H322M = experiment: Antiproliferative activity against human NCI-H322M cells assessed as cell growth inhibition measured after 48 hrs by SRB assay; assay type: functional, cell-based
[12] = target: Proto-oncogene tyrosine-protein kinase Src (Homo sapiens) (UniProt P12931); experiment: Inhibition of C-SRC (unknown origin) at 10 uM incubated for 40 mins in presence of Mg/ATP mix by [gamma p33]-ATP based scintillation counting method relative to control
HL-60(TB) [13] = experiment: Antiproliferative activity against human HL-60(TB) cells assessed as cell growth inhibition measured after 48 hrs by SRB assay; assay type: functional, cell-based; conditions: HL-60, 48 h
WI-38 = experiment: Cytotoxicity against human WI-38 cells assessed as cell growth inhibition measured after 48 hrs by SRB assay; assay type: cell-based; conditions: WI-38, 48 h
[14] = Cytotoxicity against human WI-38 cells assessed as cell growth inhibition at 10 uM measured after 48 hrs by SRB assay relative to control; assay type: cell-based
MDA-MB-468 [15] = experiment: Antiproliferative activity against human MDA-MB-468 cells assessed as cell growth inhibition at 10 uM measured after 48 hrs by SRB assay relative to control; assay type: functional
OVCAR-4 [16] = experiment: Antiproliferative activity against human OVCAR-4 cells assessed as cell growth inhibition measured after 48 hrs by SRB assay; assay type: functional, cell-based; conditions: OVCAR-4, 48 h
[17] = target: Receptor tyrosine-protein kinase erbB-2 (Homo sapiens) (UniProt P04626); experiment: Inhibition of ErbB2 (unknown origin) at 10 uM incubated for 40 mins in presence of Mg/ATP mix by [gamma p33]-ATP based scintillation counting method relative to control
MDA-MB-468 [18] = experiment: Antiproliferative activity against human MDA-MB-468 cells assessed as cell growth inhibition measured after 48 hrs by SRB assay; assay type: functional, cell-based; conditions: MDA-MB-468, 48 h
SNB-75 [19] = experiment: Antiproliferative activity against human SNB-75 cells assessed as cell growth inhibition at 10 uM measured after 48 hrs by SRB assay relative to control; assay type: functional
OVCAR-4 [20] = experiment: Antiproliferative activity against human OVCAR-4 cells assessed as cell growth inhibition at 10 uM measured after 48 hrs by SRB assay relative to control; assay type: functional
[21] = target: Epidermal growth factor receptor (Homo sapiens, UniProt P00533); experiment: Inhibition of EGFR (unknown origin) at 10 uM incubated for 40 mins in presence of Mg/ATP mix by [gamma p33]-ATP based scintillation counting method relative to control
UO-31 [22] = experiment: Antiproliferative activity against human UO-31 cells assessed as cell growth inhibition at 10 uM measured after 48 hrs by SRB assay relative to control; assay type: functional
[23] = target: T4, Receptor tyrosine-protein kinase erbB-4 (Homo sapiens, UniProt Q15303); experiment: Inhibition of ErbB4 (unknown origin) at 10 uM incubated for 40 mins in presence of Mg/ATP mix by [gamma p33]-ATP based scintillation counting method relative to control
T4 sequence (Q15303 whole entry): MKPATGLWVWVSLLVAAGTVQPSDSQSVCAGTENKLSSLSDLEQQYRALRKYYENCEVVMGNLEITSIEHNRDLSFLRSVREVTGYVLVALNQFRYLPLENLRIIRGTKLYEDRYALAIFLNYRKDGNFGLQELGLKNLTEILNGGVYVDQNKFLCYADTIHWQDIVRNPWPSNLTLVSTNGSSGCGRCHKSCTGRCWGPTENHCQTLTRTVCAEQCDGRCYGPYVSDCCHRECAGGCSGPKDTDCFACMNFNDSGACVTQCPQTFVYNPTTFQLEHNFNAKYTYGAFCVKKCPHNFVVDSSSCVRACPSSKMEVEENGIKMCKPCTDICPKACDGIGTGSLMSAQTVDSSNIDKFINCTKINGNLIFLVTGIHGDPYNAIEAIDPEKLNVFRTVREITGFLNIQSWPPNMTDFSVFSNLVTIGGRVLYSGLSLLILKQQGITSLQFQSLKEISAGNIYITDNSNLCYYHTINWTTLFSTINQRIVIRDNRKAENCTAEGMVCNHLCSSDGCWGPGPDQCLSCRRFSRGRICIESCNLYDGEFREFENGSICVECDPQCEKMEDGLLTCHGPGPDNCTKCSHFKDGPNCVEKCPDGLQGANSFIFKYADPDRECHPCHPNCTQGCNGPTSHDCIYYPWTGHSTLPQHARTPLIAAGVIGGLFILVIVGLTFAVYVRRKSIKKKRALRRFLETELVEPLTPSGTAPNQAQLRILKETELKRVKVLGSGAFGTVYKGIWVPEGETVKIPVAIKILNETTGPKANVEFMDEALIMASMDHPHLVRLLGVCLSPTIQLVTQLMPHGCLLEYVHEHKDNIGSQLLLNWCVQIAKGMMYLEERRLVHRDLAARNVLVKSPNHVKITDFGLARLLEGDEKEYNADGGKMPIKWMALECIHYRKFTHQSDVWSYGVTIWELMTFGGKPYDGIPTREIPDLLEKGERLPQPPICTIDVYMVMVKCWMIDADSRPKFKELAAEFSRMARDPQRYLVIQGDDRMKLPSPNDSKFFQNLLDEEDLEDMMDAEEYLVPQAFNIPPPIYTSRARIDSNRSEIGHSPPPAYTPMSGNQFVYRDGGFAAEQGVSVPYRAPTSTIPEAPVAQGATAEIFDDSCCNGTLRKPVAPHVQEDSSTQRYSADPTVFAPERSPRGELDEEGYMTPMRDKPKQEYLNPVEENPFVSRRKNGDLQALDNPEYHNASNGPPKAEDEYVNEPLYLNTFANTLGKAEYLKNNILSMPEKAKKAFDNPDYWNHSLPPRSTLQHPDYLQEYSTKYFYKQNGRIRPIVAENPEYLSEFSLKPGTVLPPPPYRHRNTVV

HL-60(TB) [24] = experiment: Antiproliferative activity against human HL-60(TB) cells assessed as cell growth inhibition at 10 uM measured after 48 hrs by SRB assay relative to control; assay type: functional
UO-31 [25] = experiment: Antiproliferative activity against human UO-31 cells assessed as cell growth inhibition measured after 48 hrs by SRB assay; assay type: functional, cell-based; conditions: UO-31, 48 h
CYP3A4 = CYP3A4 (Homo sapiens, UniProt P08684); experiment: Potency index, ratio of test compound IC50 to ketoconazole IC50 for inhibition of CYP3A4 (unknown origin) using BOMCC as a substrate incubated for 20 mins by fluorescence based analysis; assay type: ADME; conditions: probe BOMCC
hERG (KCNH2) = hERG (KCNH2) (Homo sapiens, UniProt Q12809); experiment: Safety index, ratio of test compound IC50 to E-4031 IC50 for inhibition of human ERG incubated for 3 hrs by competitive fluorescence tracer binding based assay; conditions: read-out: Ratio IC50
[26] = target: T4, Receptor tyrosine-protein kinase erbB-4; experiment: Inhibition of ErbB4 (unknown origin) incubated for 40 mins in presence of Mg/ATP mix by [gamma p33]-ATP based scintillation counting method
Homo sapiens = organism: Homo sapiens; experiment: Selectivity ratio of IC50 for inhibition of EFGR-T790M mutant (unknown origin) to IC50 for ErbB4 (unknown origin); conditions: time 40.0 min
[27] = target: Epidermal growth factor receptor (Homo sapiens, UniProt P00533, T790M); experiment: Inhibition of EGFR- T790M mutant (unknown origin) incubated for 40 mins in presence of Mg/ATP mix by [gamma p33]-ATP based scintillation counting method
Cytochrome P450 2D6 = Cytochrome P450 2D6 (Homo sapiens, UniProt P10635); experiment: Inhibition of CYP2D6 (unknown origin) using EOMCC as a substrate incubated for 20 mins by fluorescence based analysis; assay type: ADME
[28] = target: Epidermal growth factor receptor (Homo sapiens, UniProt P00533, L858R/T790M); experiment: Inhibition of EGFR T790M/L858R mutant (unknown origin) incubated for 40 mins in presence of Mg/ATP mix by [gamma p33]-ATP based scintillation counting method
[29] = target: Dual specificity mitogen-activated protein kinase kinase 2 (Homo sapiens, UniProt P36507); experiment: Inhibition of MEK2 (unknown origin) incubated for 40 mins in presence of Mg/ATP mix by [gamma p33]-ATP based scintillation counting method
[30] = target: Epidermal growth factor receptor (Homo sapiens, UniProt P00533, L861Q); experiment: Inhibition of EGFR- L861Q mutant (unknown origin) incubated for 40 mins in presence of Mg/ATP mix by [gamma p33]-ATP based scintillation counting method
[31] = target: Voltage-gated inwardly rectifying potassium channel KCNH2 (Homo sapiens, UniProt Q12809); experiment: Inhibition of human ERG incubated for 3 hrs by competitive fluorescence tracer binding based assay
[32] = target: Receptor-type tyrosine-protein kinase FLT3 (Homo sapiens, UniProt P36888); experiment: Inhibition of FLT-3(unknown origin) incubated for 40 mins in presence of Mg/ATP mix by [gamma p33]-ATP based scintillation counting method
Chain of Receptor-type tyrosine-protein kinase FLT3 (P36888 whole entry): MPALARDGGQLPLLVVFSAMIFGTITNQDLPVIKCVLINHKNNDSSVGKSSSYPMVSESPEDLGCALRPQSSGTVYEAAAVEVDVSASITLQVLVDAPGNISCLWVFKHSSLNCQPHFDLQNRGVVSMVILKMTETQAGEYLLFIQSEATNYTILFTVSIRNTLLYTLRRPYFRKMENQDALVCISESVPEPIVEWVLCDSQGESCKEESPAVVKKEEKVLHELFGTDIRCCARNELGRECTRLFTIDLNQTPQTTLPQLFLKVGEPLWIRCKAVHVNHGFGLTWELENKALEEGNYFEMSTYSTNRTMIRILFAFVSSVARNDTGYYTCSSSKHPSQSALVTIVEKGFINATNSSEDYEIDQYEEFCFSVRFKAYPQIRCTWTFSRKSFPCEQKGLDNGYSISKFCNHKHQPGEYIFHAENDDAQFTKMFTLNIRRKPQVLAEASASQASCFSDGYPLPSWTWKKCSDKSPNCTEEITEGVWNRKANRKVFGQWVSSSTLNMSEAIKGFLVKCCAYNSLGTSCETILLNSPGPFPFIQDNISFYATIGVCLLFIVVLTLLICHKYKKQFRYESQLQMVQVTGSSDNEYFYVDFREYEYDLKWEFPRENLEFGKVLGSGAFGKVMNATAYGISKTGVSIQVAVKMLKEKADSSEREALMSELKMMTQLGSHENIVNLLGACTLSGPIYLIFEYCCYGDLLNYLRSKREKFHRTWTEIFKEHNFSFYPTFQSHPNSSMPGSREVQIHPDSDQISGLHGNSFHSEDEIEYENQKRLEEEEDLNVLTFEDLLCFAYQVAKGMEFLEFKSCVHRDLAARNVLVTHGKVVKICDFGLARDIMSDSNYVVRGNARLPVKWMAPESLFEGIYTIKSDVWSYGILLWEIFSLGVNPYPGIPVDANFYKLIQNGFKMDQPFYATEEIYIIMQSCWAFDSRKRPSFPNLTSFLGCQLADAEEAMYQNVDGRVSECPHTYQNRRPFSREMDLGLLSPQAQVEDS

[33] = target: T2, Vascular endothelial growth factor receptor 2; experiment: Inhibition of KDR (unknown origin) incubated for 40 mins in presence of Mg/ATP mix by [gamma p33]-ATP based scintillation counting method
[34] = target: Serine/threonine-protein kinase A-Raf (Homo sapiens, UniProt P10398); experiment: Inhibition of A-RAF (unknown origin) incubated for 40 mins in presence of Mg/ATP mix by [gamma p33]-ATP based scintillation counting method
Cytochrome P450 3A4 = Cytochrome P450 3A4 (Homo sapiens, UniProt P08684); experiment: Inhibition of CYP3A4 (unknown origin) using BOMCC as a substrate incubated for 20 mins by fluorescence based analysis; assay type: ADME
[35] = target: Serine/threonine-protein kinase B-raf (Homo sapiens, UniProt P15056, V600E); experiment: Inhibition of BRAF V600E mutant (unknown origin) incubated for 40 mins in presence of Mg/ATP mix by [gamma p33]-ATP based scintillation counting method
[36] = target: T3, Serine/threonine-protein kinase B-raf; experiment: Inhibition of wild type B-RAF (unknown origin) incubated for 40 mins in presence of Mg/ATP mix by [gamma p33]-ATP based scintillation counting method
[37] = target: T1, RAF proto-oncogene serine/threonine-protein kinase; experiment: Inhibition of RAF1 (unknown origin) incubated for 40 mins in presence of Mg/ATP mix by [gamma p33]-ATP based scintillation counting method

CS(=O)(=O)c1nccc(-c2c(-c3cccc(OCc4ccc(F)cc4)c3)nc3sccn23)n1
IC50 (SK-MEL-5 [1]): 1540 nM
inhibition [2]: -0.04%
inhibition [3]: 10.8%
inhibition at 10 µM (DU-145 [4]): 154%
inhibition [5]: 24.8%
growth at 10 µM [6]: 60.6%
inhibition [7]: 33.6%
inhibition at 10 µM (SK-MEL-5 [8]): 94.6%
inhibition [9]: 9.62%
IC50 (DU-145 [10]): 1890 nM
IC50 (SNB-75 [11]): 15600 nM
IC50 (NCI-H322M): 1820 nM
inhibition [12]: 2.46%
IC50 (HL-60(TB) [13]): 3360 nM
IC50 (WI-38): 12600 nM
inhibition at 48 h, 10 µM [14]: 21.6%
inhibition at 10 µM (MDA-MB-468 [15]): 164%
IC50 (OVCAR-4 [16]): 3980 nM
inhibition [17]: -2.99%
IC50 (MDA-MB-468 [18]): 1800 nM
inhibition at 10 µM (SNB-75 [19]): 4.08%
inhibition at 10 µM (OVCAR-4 [20]): 34.9%
inhibition [21]: -5.54%
inhibition at 10 µM (UO-31 [22]): 124%
inhibition [23]: 60.2%
inhibition at 10 µM (HL-60(TB) [24]): 56.3%
IC50 (UO-31 [25]): 1680 nM

c1ccc(COc2cccc(-c3nc4sccn4c3-c3ccncn3)c2)cc1
selectivity ratio at 20 min (CYP3A4): 8790
growth at 10 µM [6]: 78.4%
selectivity ratio at 3 h (hERG (KCNH2)): 530
IC50 [26]: 17.7 nM
Selectivity Index (Homo sapiens): 21.5
IC50 [27]: 380 nM
IC50 (Cytochrome P450 2D6): > 90000 nM
IC50 [28]: 8560 nM
IC50 [29]: 3250 nM
IC50 [30]: 4350 nM
IC50 [31]: 12800 nM
IC50 [32]: 1360 nM
IC50 [33]: 710 nM
IC50 [34]: 7060 nM
IC50 (Cytochrome P450 3A4): 20900 nM
inhibition [23]: > 60%
IC50 [35]: 1590 nM
IC50 [36]: 1000 nM
IC50 [37]: 2030 nM
